Data taken from US20260274829A1, “NEW E3 UBIQUITIN LIGASE LIGAND, PROTEIN DEGRADATION AGENT AND USE THEREOF” (GLUETACS THERAPEUTICS (SHANGHAI) CO., LTD., priority 2023, published 2026).

Experiments:
Format in all cases: cell-based
IKZF1 = biological target: T1, IKZF1 (Homo sapiens, UniProt Q13422+Q96SW2); assay: Western blot degradation of IKZF1 in hPBMC
T1 construct: endogenous in cells; host or cells: hPBMC
Protocol: (§1) Conventional Western blot assay was performed to evaluate the effects of the compounds of the present disclosure on the expression of target proteins in cells.
(§2) • (1) Cell Seeding and Protein Harvesting: The selected cells were processed according to the cell seeding procedure and protein harvesting procedure in Table III-2.
(§3) • (2) To the collected supernatant, 5×SDS sample loading buffer was added, followed by denaturation at 95° C. for 5 minutes. The denatured samples were then separated by SDS-PAGE electrophoresis on a polyacrylamide gel. Proteins were transferred to a nitrocellulose membrane ([…] NC membrane), blocked with blocking buffer at room temperature for 1 hour, and subjected to antibody incubation and development procedures according to the antibody manufacturer's instructions (Cell Signaling Technology).
(§4) Half-Maximal Degradation Concentration value (the drug concentration required for degrading proteins by 50%, abbreviated as DC50) reads method: comparing the grayscale values of Western blot bands from drug-treated samples with those from blank DMSO-treated controls, and identifying the drug concentration range at which the grayscale value is half that of the DMSO-treated control bands.
(§5) DC50 values can be calculated using ImageJ software to measure grayscale values of Western blot bands from drug-treated samples. The concentration-response curve is fitted to estimate the drug concentration corresponding to half the grayscale value.
(§6) Target protein remaining (0%) refers to the percentage of target protein remaining in hPBMC cells after treatment with protein degrader compounds.
(§7) Calculation method for target protein remaining (0%): Use ImageJ software to measure grayscale values of Western blot bands from drug (protein degrader)-treated samples. The grayscale value of drug-treated bands is divided by that of internal control protein bands, and the resulting quotient is normalized to obtain the relative percentage of remaining target protein after protein degrader treatment.

IKZF2 = biological target: T2, IKZF2 (Homo sapiens, UniProt Q96SW2+Q9UKS7); assay: Western blot degradation of IKZF2 in hPBMC
T2 construct: endogenous in cells; host or cells: hPBMC
Protocol: as §1, §2, §3, §4, §5, §6, §7

WEE1 = biological target: T3, WEE1 (Homo sapiens, UniProt P30291+Q96SW2); assay: Western blot degradation of WEE1 in hPBMC
T3 construct: endogenous in cells; host or cells: hPBMC
Protocol: as §1, §2, §3, §4, §5, §6, §7

CK1a = biological target: T4, CK1a (Homo sapiens, UniProt P48729+Q96SW2); assay: Western blot degradation of CK1a in hPBMC
T4 construct: endogenous in cells; host or cells: hPBMC
Protocol: as §1, §2, §3, §4, §5, §6, §7

IKZF3 = biological target: T5, IKZF3 (Homo sapiens, UniProt Q96SW2+Q9UKT9); assay: Western blot degradation of IKZF3 in hPBMC
T5 construct: endogenous in cells; host or cells: hPBMC
Protocol: as §1, §2, §3, §4, §5, §6, §7

GSPT1 = biological target: T6, GSPT1 (Homo sapiens, UniProt P15170+Q96SW2); assay: Western blot degradation of GSPT1 in hPBMC
T6 construct: endogenous in cells; host or cells: hPBMC
Protocol: as §1, §2, §3, §4, §5, §6, §7

T4 sequence (P48729 whole entry): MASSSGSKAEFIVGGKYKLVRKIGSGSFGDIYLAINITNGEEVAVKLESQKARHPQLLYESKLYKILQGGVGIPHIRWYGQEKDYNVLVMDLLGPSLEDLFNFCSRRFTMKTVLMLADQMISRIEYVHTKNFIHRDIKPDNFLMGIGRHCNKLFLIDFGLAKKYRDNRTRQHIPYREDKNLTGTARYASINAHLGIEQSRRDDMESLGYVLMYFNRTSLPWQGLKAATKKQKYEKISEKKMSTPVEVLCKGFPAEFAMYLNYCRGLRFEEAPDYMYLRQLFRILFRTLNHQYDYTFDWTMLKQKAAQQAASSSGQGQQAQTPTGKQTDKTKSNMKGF
T4 sequence (Q96SW2 whole entry): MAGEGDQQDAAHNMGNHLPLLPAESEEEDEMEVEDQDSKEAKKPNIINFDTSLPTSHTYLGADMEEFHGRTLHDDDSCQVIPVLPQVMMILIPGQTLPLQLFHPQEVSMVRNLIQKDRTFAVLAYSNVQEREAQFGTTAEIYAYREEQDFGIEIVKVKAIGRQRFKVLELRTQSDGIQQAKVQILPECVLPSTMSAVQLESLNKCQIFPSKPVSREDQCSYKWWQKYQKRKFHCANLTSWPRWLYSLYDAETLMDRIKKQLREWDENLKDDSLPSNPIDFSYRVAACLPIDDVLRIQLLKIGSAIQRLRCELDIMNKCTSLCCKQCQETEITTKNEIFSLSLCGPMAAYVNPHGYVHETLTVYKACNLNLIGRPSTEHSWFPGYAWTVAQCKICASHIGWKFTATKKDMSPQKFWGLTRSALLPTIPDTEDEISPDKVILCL
T4 sequence (Q16531 whole entry partner): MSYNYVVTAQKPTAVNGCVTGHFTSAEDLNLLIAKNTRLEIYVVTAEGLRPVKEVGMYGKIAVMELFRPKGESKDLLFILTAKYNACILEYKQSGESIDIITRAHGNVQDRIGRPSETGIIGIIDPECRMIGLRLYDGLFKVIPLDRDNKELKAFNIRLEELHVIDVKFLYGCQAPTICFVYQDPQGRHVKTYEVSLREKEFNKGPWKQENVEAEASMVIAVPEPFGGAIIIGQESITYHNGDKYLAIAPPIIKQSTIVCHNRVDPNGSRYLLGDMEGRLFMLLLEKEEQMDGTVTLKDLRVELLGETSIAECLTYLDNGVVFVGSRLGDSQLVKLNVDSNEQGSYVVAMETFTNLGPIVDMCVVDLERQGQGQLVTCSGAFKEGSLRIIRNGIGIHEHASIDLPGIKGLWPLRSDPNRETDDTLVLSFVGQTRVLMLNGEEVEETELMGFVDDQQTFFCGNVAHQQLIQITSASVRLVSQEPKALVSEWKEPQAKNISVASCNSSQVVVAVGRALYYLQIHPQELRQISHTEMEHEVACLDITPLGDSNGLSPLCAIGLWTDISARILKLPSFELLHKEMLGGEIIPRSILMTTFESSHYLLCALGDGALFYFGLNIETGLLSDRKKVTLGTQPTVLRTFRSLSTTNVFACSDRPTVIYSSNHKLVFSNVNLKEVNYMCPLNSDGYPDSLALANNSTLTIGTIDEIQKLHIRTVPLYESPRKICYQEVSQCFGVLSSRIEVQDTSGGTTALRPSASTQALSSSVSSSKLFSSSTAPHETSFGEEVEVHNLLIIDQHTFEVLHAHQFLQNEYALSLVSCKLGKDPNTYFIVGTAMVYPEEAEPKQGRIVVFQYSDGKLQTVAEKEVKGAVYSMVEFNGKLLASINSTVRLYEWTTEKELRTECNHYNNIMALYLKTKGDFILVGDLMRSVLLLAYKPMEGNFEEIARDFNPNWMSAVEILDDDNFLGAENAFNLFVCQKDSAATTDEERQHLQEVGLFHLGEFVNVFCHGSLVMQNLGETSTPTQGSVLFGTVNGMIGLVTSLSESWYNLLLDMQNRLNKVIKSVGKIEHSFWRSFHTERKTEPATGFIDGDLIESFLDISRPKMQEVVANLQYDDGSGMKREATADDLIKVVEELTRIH
T1 sequence (Q13422 whole entry): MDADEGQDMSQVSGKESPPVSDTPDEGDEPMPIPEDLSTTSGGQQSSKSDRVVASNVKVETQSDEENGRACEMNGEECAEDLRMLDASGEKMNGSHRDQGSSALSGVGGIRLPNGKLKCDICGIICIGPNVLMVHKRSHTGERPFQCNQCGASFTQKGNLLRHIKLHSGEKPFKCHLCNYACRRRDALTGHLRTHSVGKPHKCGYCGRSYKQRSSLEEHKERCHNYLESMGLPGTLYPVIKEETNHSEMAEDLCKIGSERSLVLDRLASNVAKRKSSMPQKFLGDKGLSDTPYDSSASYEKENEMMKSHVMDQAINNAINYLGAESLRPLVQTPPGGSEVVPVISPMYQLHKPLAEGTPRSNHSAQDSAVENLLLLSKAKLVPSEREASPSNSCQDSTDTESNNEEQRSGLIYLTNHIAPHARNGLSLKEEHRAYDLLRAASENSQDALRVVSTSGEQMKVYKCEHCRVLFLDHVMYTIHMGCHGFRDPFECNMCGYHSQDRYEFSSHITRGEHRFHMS
T1 sequence (Q96SW2 whole entry): as the sequence (Q96SW2 whole entry) above
T1 sequence (Q16531 whole entry partner): as the sequence (Q16531 whole entry partner) above
T5 sequence (Q9UKT9 whole entry): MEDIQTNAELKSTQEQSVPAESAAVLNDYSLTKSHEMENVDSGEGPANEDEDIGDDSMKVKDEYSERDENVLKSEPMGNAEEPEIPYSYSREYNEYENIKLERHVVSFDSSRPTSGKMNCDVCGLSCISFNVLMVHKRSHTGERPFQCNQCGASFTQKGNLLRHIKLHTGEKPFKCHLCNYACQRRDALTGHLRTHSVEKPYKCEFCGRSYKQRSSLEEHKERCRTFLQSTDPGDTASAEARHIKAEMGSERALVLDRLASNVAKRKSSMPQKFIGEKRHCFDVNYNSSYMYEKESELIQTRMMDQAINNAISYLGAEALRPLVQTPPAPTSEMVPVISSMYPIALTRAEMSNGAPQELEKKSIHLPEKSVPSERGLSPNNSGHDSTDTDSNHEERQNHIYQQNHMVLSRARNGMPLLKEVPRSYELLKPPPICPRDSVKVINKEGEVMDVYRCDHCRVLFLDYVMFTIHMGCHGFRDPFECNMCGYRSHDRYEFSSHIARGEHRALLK
T5 sequence (Q96SW2 whole entry): as the sequence (Q96SW2 whole entry) above
T5 sequence (Q16531 whole entry partner): as the sequence (Q16531 whole entry partner) above
T3 sequence (P30291 whole entry): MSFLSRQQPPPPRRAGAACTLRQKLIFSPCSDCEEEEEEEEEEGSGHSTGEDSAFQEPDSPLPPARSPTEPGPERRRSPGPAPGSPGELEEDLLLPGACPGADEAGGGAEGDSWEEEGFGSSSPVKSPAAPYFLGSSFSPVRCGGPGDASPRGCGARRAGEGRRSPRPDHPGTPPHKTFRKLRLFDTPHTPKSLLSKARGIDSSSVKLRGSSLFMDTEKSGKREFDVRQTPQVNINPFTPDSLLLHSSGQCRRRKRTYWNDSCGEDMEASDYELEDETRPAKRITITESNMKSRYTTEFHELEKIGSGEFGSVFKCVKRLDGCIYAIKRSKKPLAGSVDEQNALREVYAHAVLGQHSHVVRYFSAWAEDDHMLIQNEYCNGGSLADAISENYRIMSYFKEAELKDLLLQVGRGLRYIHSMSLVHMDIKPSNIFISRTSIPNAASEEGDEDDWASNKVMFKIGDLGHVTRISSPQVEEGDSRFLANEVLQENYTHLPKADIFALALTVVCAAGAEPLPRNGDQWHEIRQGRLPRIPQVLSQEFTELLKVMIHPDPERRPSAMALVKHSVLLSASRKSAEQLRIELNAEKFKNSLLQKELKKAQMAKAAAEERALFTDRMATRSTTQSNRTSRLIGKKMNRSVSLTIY
T3 sequence (Q96SW2 whole entry): as the sequence (Q96SW2 whole entry) above
T3 sequence (Q16531 whole entry partner): as the sequence (Q16531 whole entry partner) above
T6 sequence (P15170 whole entry): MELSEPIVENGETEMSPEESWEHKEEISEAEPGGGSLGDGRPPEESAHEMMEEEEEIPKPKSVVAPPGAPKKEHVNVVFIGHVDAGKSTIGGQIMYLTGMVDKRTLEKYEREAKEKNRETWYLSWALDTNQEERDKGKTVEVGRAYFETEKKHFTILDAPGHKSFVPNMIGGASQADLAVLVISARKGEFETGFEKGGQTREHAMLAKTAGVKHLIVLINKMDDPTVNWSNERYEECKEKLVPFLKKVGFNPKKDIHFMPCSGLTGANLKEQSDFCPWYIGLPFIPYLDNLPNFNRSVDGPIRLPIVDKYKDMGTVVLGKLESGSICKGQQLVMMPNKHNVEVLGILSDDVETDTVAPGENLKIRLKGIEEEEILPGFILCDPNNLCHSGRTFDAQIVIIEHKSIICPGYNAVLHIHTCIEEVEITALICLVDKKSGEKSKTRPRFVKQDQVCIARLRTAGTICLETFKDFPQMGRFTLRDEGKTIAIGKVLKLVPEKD
T6 sequence (Q96SW2 whole entry): as the sequence (Q96SW2 whole entry) above
T6 sequence (Q16531 whole entry partner): as the sequence (Q16531 whole entry partner) above

Structure (SMILES)	Degradation of substrate protein IKZF1 (substrate protein remaining %) (IKZF1)	Degradation of substrate protein IKZF2 (substrate protein remaining %) (IKZF2)	Degradation of substrate protein WEE1 (substrate protein remaining %) (WEE1)	Degradation of substrate protein CK1a (substrate protein remaining %) (CK1a)	Degradation of substrate protein IKZF3 (substrate protein remaining %) (IKZF3)	Degradation of substrate protein GSPT1 (substrate protein remaining %) (GSPT1)
NCc1cncc(N2CCC(=O)NC2=O)c1 [GT-07077, 1-(5-(aminomethyl)pyridin-3-yl)dihydropyrimidine-2,4(1H,3H)-dione]	B (B is defined as substrate protein remaining % > 80%)	B (B is defined as substrate protein remaining % > 80%)	B (B is defined as substrate protein remaining % > 80%)	B (B is defined as substrate protein remaining % > 80%)	B (B is defined as substrate protein remaining % > 80%)	A (A is defined as 0% ≤ substrate protein remaining % ≤ 80%)
O=C1CCN(c2cc(CCl)ccn2)C(=O)N1 [GT-07078, 1-(4-(chloromethyl)pyridin-2-yl)dihydropyrimidine-2,4(1H,3H)-dione]	B (B is defined as substrate protein remaining % > 80%)	B (B is defined as substrate protein remaining % > 80%)	B (B is defined as substrate protein remaining % > 80%)	B (B is defined as substrate protein remaining % > 80%)	B (B is defined as substrate protein remaining % > 80%)	A (A is defined as 0% ≤ substrate protein remaining % ≤ 80%)
O=C1CCC(Nc2ncccc2CO)C(=O)N1 (stereo not drawn) [GT-07197, 3-((3-(hydroxymethyl)pyridin-2-yl)amino)piperidine-2,6-dione]	B (B is defined as substrate protein remaining % > 80%)	B (B is defined as substrate protein remaining % > 80%)	B (B is defined as substrate protein remaining % > 80%)	A (A is defined as 0% ≤ substrate protein remaining % ≤ 80%)	B (B is defined as substrate protein remaining % > 80%)	A (A is defined as 0% ≤ substrate protein remaining % ≤ 80%)
NCc1ccnc(N2CCC(=O)NC2=O)c1 [GT-07198, 1-(4-(aminomethyl)pyridin-2-yl)dihydropyrimidine-2,4(1H,3H)-dione]	B (B is defined as substrate protein remaining % > 80%)	B (B is defined as substrate protein remaining % > 80%)	B (B is defined as substrate protein remaining % > 80%)	B (B is defined as substrate protein remaining % > 80%)	A (A is defined as 0% ≤ substrate protein remaining % ≤ 80%)	B (B is defined as substrate protein remaining % > 80%)
O=C1CCN(c2cc(CCl)c(F)cn2)C(=O)N1 [GT-07199, 1-(4-(chloromethyl)-5-fluoropyridin-2-yl)dihydropyrimidine-2,4(1H,3H)-dione]	B (B is defined as substrate protein remaining % > 80%)	A (A is defined as 0% ≤ substrate protein remaining % ≤ 80%)	B (B is defined as substrate protein remaining % > 80%)	A (A is defined as 0% ≤ substrate protein remaining % ≤ 80%)	A (A is defined as 0% ≤ substrate protein remaining % ≤ 80%)	A (A is defined as 0% ≤ substrate protein remaining % ≤ 80%)
O=C1CCC(Nc2cc(CO)ccn2)C(=O)N1 (stereo not drawn) [GT-07366, 3-((4-(hydroxymethyl)pyridin-2-yl)amino)piperidine-2,6-dione]	B (B is defined as substrate protein remaining % > 80%)	B (B is defined as substrate protein remaining % > 80%)	B (B is defined as substrate protein remaining % > 80%)	A (A is defined as 0% ≤ substrate protein remaining % ≤ 80%)	B (B is defined as substrate protein remaining % > 80%)	A (A is defined as 0% ≤ substrate protein remaining % ≤ 80%)
O=Cc1cnc(NC2CCC(=O)NC2=O)nc1 (stereo not drawn) [GT-07367, 2-((2,6-dioxopiperidin-3-yl)amino)pyrimidine-5-carbaldehyde]	B (B is defined as substrate protein remaining % > 80%)	B (B is defined as substrate protein remaining % > 80%)	B (B is defined as substrate protein remaining % > 80%)	A (A is defined as 0% ≤ substrate protein remaining % ≤ 80%)	B (B is defined as substrate protein remaining % > 80%)	A (A is defined as 0% ≤ substrate protein remaining % ≤ 80%)
NCc1cc(N2CCC(=O)NC2=O)ncc1F [GT-07369, 1-(4-(aminomethyl)-5-fluoropyridin-2-yl)dihydropyrimidine-2,4(1H,3H)-dione]	B (B is defined as substrate protein remaining % > 80%)	B (B is defined as substrate protein remaining % > 80%)	B (B is defined as substrate protein remaining % > 80%)	A (A is defined as 0% ≤ substrate protein remaining % ≤ 80%)	B (B is defined as substrate protein remaining % > 80%)	A (A is defined as 0% ≤ substrate protein remaining % ≤ 80%)
O=C1CCC(c2ncccc2CO)C(=O)N1 (stereo not drawn) [GT-07370, 3-(3-(hydroxymethyl)pyridin-2-yl)piperidine-2,6-dione]	B (B is defined as substrate protein remaining % > 80%)	B (B is defined as substrate protein remaining % > 80%)	B (B is defined as substrate protein remaining % > 80%)	A (A is defined as 0% ≤ substrate protein remaining % ≤ 80%)	B (B is defined as substrate protein remaining % > 80%)	A (A is defined as 0% ≤ substrate protein remaining % ≤ 80%)
O=C1CCC(c2ncc(CO)cc2F)C(=O)N1 (stereo not drawn) [GT-07443, 3-(3-fluoro-5-(hydroxymethyl)pyridin-2-yl)piperidine-2,6-dione]	A (A is defined as 0% ≤ substrate protein remaining % ≤ 80%)	A (A is defined as 0% ≤ substrate protein remaining % ≤ 80%)	A (A is defined as 0% ≤ substrate protein remaining % ≤ 80%)	A (A is defined as 0% ≤ substrate protein remaining % ≤ 80%)	B (B is defined as substrate protein remaining % > 80%)	A (A is defined as 0% ≤ substrate protein remaining % ≤ 80%)
